# pIC50: −log10 of the molar value.
# Molecular target: IRAK4 (Homo sapiens (Human), UniProt Q9NWZ3)
# Test: IRAK-4 AlphaScreen biochemical kinase assay
# Details: 1 nM IRAK4, 1 mM ATP, 3.5 h at RT
# Procedure, shortened: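 AlphaScreen read-out: streptavidin beads bind the biotinylated peptide and protein A beads bind the anti-phosphothreonine antibody, so energy transfer reports phosphorylation of the peptide. The kinase is human IRAK-4.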
# IRAK4, sequence (Q9NWZ3 whole entry, species assumed): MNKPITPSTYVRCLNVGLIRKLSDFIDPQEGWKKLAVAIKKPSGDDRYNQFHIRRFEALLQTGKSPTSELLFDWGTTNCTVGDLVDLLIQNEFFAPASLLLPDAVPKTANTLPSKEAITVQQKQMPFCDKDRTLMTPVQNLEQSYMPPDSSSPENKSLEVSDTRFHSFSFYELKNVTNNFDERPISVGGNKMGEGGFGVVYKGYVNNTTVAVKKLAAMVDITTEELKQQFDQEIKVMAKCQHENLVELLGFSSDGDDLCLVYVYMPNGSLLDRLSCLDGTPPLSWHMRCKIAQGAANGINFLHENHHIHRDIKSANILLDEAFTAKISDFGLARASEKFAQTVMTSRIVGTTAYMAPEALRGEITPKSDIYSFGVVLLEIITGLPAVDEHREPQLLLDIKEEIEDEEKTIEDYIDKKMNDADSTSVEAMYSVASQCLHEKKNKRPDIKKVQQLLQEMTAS
row,pIC50,SMILES
1,5.00 to 6.00,"NCc1nccc(-c2ccc3cnn(-c4cccc(C(F)(F)F)n4)c3c2)n1 [Example 95, (4-(1-(6-(trifluoromethyl)pyridin-2-yl)-1H-indazol-6-yl)pyrimidin-2-yl)methanamine]"
2,> 7.00,"CCC[C@H](N)c1ccnc(-c2cc(OCCOC)c3cnn(-c4cccc(CO)n4)c3c2)n1 [Example 595, (S)-(6-(6-(4-(1-aminobutyl)pyrimidin-2-yl)-4-(2-methoxyethoxy)-1H-indazol-1-yl)pyridin-2-yl)methanol]"
3,> 7.00,"CCC[C@H](N)c1nccc(-c2ccc3cnn(-c4cccc(CO)n4)c3c2)n1 [Example 405, (S)-(6-(6-(2-(1-aminobutyl)pyrimidin-4-yl)-1H-indazol-1-yl)pyridin-2-yl)methanol]"
4,5.00 to 6.00,"CCc1cccc(-n2ncc3ccc(-c4cccc(/C(C)=N/O)n4)cc32)n1 [Example 235, (E)-1-(6-(1-(6-ethylpyridin-2-yl)-1H-indazol-6-yl)pyridin-2-yl)ethanone oxime]"
5,> 7.00,"CC(N)c1cccc(-c2ccc3cnn(-c4cccc(C(N)=O)n4)c3c2)n1 (stereo not drawn) [Example 126, 6-(6-(6-(1-aminoethyl)pyridin-2-yl)-1H-indazol-1-yl)picolinamide]"
6,6.00 to 7.00,"COCCOc1cc(-c2cccc(C3(N)COC3)n2)cc2c1cnn2-c1cccc(CO)n1 [Example 465, (6-(6-(6-(3-aminooxetan-3-yl)pyridin-2-yl)-4-(2-methoxyethoxy)-1H-indazol-1-yl)pyridin-2-yl)methanol]"
7,6.00 to 7.00,"N#CC[C@@H](N)c1cccc(-c2ccc3cnn(-c4cccc(CO)n4)c3c2)n1 [Example 581, (R)-3-amino-3-(6-(1-(6-(hydroxymethyl)pyridin-2-yl)-1H-indazol-6-yl)pyridin-2-yl)propanenitrile]"
8,> 7.00,"CC(N)c1cccc(-c2ccc3cnn(-c4cccc(C(C)(C)C)n4)c3c2)n1 (stereo not drawn) [Example 286, 1-(6-(1-(6-(tert-butyl)pyridin-2-yl)-1H-indazol-6-yl)pyridin-2-yl)ethanamine]"
9,6.00 to 7.00,"CC(N)c1cccc(-c2ccc3cnn(-c4cccc(C(C)(C)C#N)n4)c3c2)n1 (stereo not drawn) [Example 288, 2-(6-(6-(6-(1-aminoethyl)pyridin-2-yl)-1H-indazol-1-yl)pyridin-2-yl)-2-methylpropanenitrile]"
10,> 7.00,"CCC[C@H](N)c1cccc(-c2cc(Cl)c3cnn(-c4nccc(C(F)F)n4)c3c2)n1 [Example 570, (S)-1-(6-(4-chloro-1-(4-(difluoromethyl)pyrimidin-2-yl)-1H-indazol-6-yl)pyridin-2-yl)butan-1-amine]"
11,6.00 to 7.00,"Cc1cccc(-n2ncc3ccc(-c4cccc(C(N)C#N)n4)cc32)n1 (stereo not drawn) [Example 258, 2-amino-2-(6-(1-(6-methylpyridin-2-yl)-1H-indazol-6-yl)pyridin-2-yl)acetonitrile]"
12,6.00 to 7.00,"Cc1cccc(-n2ncc3ccc(-c4cccc(CN(C)C)n4)cc32)n1 [Example 14, N,N-dimethyl-1-(6-(1-(6-methylpyridin-2-yl)-1H-indazol-6-yl)pyridin-2-yl)methanamine]"
13,> 7.00,"COCCOc1cc(-c2cccc(C3(N)CCC3)n2)cc2c1cnn2-c1cncc(CO)n1 [Example 468, (6-(6-(6-(1-aminocyclobutyl)pyridin-2-yl)-4-(2-methoxyethoxy)-1H-indazol-1-yl)pyrazin-2-yl)methanol]"
14,> 7.00,"CCC[C@H](N)c1cccc(-c2cc(OC)c3cnn(-c4nccc(C(F)F)n4)c3c2)n1 [Example 572, (S)-1-(6-(1-(4-(difluoromethyl)pyrimidin-2-yl)-4-methoxy-1H-indazol-6-yl)pyridin-2-yl)butan-1-amine]"

row,SMILES,pIC50
1,"Cc1cccc(-n2ncc3c(C(F)(F)F)cc(-c4cccc(C(C)N)n4)cc32)n1 (stereo not drawn) [Example 111, 1-(6-(1-(6-methylpyridin-2-yl)-4-(trifluoromethyl)-1H-indazol-6-yl)pyridin-2-yl)ethanamine]",6.00 to 7.00

# From patent US10246456B2, “IRAK4 inhibiting agents” (BIOGEN MA INC., priority 2014, dated 2019)
